{
  "source": "patent US20180362543A1",
  "about": "“HIV REPLICATION INHIBITOR” (Shionogi & Co., Ltd., priority 2013, published 2018)",
  "tested_on": "HIV (HTLV-III B strain)",
  "experiment": "HIV replication inhibition assay (MTT, MT-4 cells)",
  "assay_type": "cell-based",
  "method": "HIV (HTLV-III B strain) persistent infected human T cell strain Molt-4 clone 8 was cultured in 10% Fetal Bovine Serum-containing RPMI-1640 medium and the supernatant was filtrated, then the virus titer was measured and the solution was stored at −80° C. Each anti-human immunodeficiency virus active substance was diluted with the above cultured medium to the designated concentration, which was dispensed into 96 well micro plate by 50 μL. Next, a MT-4 cell suspended liquid was dispensed by 100 μL (2.5×10^4 cells), then the above HIV-containing supernatant diluted with the above cultured medium was added thereto by 50 μL (60 pfu (plaque forming unit)).\nThe obtained mixture was cultured at 37° C. in CO2 incubator for four days, then 3-(4,5-dimehylthiazole-2-yl)-2,5-diphenyltetrazolynium bromide (MTT) 5 mg/mL in PBS was added to each well by 30 μL, followed by 1 hr-cultivation. In this step, as formazan was precipitated by reduction of MTT in living cells, the cell supernatant was removed from all well by 150 μL, then a 150 μL of solution (10% Triton X-100 and […]) was added thereto, followed by shaking with a plate mixer, to elute formazan. The formazan was measured with a microreader at OD: 560 nm and 690 nm (wavelength) and the result was compared with the reference. EC50 means the compound concentration at which cell cytotoxicity by virus is inhibited 50%.",
  "key": {"[1]": {"settings": "Human immunodeficiency virus 1, MT4, 96 h, Table A-5, four days"}, "[2]": {"settings": "Human immunodeficiency virus 1, MT4, 96 h, 4 days culture, concentration at which cell cytotoxicity by virus is inhibited 50%"}, "[3]": {"settings": "4 days culture, concentration at which cell cytotoxicity by virus is inhibited 50%"}},
  "data": [
    {"smiles": "Cc1c(-c2c(C)c3c(c(C)c2[C@H](OC(C)(C)C)C(=O)O)N(S(C)(=O)=O)Cc2cc(F)cc(F)c2-3)ccc2c1NCCO2", "note": "[Compound 286]", "values": [
      {"measurement": "EC50", "setting": "[1]", "result": 3.2, "unit": "nM"}
    ]},
    {"smiles": "Cc1ccc(-c2c(C)c3c(c(C)c2[C@H](OC(C)(C)C)C(=O)O)N(S(C)(=O)=O)[C@@H](C)c2ccccc2-3)cc1", "note": "[Compound 287]", "values": [
      {"measurement": "EC50", "setting": "[1]", "result": 33, "unit": "nM"}
    ]},
    {"smiles": "Cc1ccc(-c2c(C)c3c(c(C)c2[C@H](OC(C)(C)C)C(=O)O)N(S(C)(=O)=O)CC2CCCCN32)cc1", "note": "(stereo partly drawn) [Compound 288]", "values": [
      {"measurement": "EC50", "setting": "Table A-5, four days", "result": 37, "unit": "nM"}
    ]},
    {"smiles": "CC(=O)N1Cc2ccccc2-c2c(C)c(-c3ccc(C)cc3)c([C@H](OC(C)(C)C)C(=O)O)c(C)c21", "note": "[Compound 290]", "values": [
      {"measurement": "EC50", "setting": "[1]", "result": 53, "unit": "nM"}
    ]},
    {"smiles": "COc1ccc2c(c1F)CN(S(C)(=O)=O)c1c(C)c([C@H](OC(C)(C)C)C(=O)O)c(-c3ccc4c(c3C)NCCO4)c(C)c1-2", "note": "[Compound 293]", "values": [
      {"measurement": "EC50", "setting": "[1]", "result": 3.3, "unit": "nM"}
    ]},
    {"smiles": "Cc1c(-c2ccc3c(c2Cl)NCCO3)c([C@H](OC(C)(C)C)C(=O)O)c(C)c2c1-c1c(F)ccc(F)c1CN2S(C)(=O)=O", "note": "[Compound 296]", "values": [
      {"measurement": "EC50", "setting": "[1]", "result": "< 7.8", "unit": "nM"}
    ]},
    {"smiles": "Cc1ccc(-c2c(C)c3c(c(C)c2[C@H](OC(C)(C)C)C(=O)O)S(=O)(=O)Cc2cc(F)cc(F)c2-3)cc1", "note": "[Compound 298]", "values": [
      {"measurement": "EC50", "setting": "[2]", "result": 30, "unit": "nM"}
    ]},
    {"smiles": "Cc1c(-c2cc(F)c3c(c2F)CCCO3)c([C@H](OC(C)(C)C)C(=O)O)c(C)c2c1-c1c(F)ccc(F)c1CN2S(C)(=O)=O", "note": "[Compound 299]", "values": [
      {"measurement": "EC50", "setting": "[2]", "result": 26, "unit": "nM"}
    ]},
    {"smiles": "Cc1c(-c2c(C)c3c(c(C)c2[C@H](OC(C)(C)C)C(=O)O)N(S(C)(=O)=O)Cc2ccccc2-3)ccc2c1NCCO2", "note": "[Compound 300]", "values": [
      {"measurement": "EC50", "setting": "[2]", "result": "< 7.8", "unit": "nM"}
    ]},
    {"smiles": "Cc1ccc(-c2c(C)c3c(c(C)c2[C@H](OC(C)(C)C)C(=O)O)N(S(C)(=O)=O)Cc2cc(Cl)ccc2-3)cc1", "note": "[Compound 301]", "values": [
      {"measurement": "EC50", "setting": "[2]", "result": 4.9, "unit": "nM"}
    ]},
    {"smiles": "Cc1ccc(-c2c(C)c3c(c(C)c2[C@H](OC(C)(C)C)C(=O)O)N(S(C)(=O)=O)Cc2cccc(Cl)c2-3)cc1", "note": "[Compound 302]", "values": [
      {"measurement": "EC50", "setting": "[2]", "result": 28.1, "unit": "nM"}
    ]},
    {"smiles": "Cc1ccc(-c2c(C)c3c(c(C)c2[C@H](OC(C)(C)C)C(=O)O)N(S(C)(=O)=O)Cc2c(F)ccc(F)c2-3)c(F)c1", "note": "[Compound 304]", "values": [
      {"measurement": "EC50", "setting": "[2]", "result": 5.2, "unit": "nM"}
    ]},
    {"smiles": "Cc1ccc(-c2c(C)c3c(c(C)c2[C@H](OC(C)(C)C)C(=O)O)N(S(C)(=O)=O)Cc2oc(C)nc2-3)cc1", "note": "[Compound 305]", "values": [
      {"measurement": "EC50", "setting": "[2]", "result": 28, "unit": "nM"}
    ]},
    {"smiles": "COc1nc2c(s1)CN(S(C)(=O)=O)c1c(C)c([C@H](OC(C)(C)C)C(=O)O)c(-c3ccc(C)cc3)c(C)c1-2", "note": "[Compound 307]", "values": [
      {"measurement": "EC50", "setting": "[2]", "result": 51, "unit": "nM"}
    ]},
    {"smiles": "Cc1c(-c2c(C)c3c(c(C)c2[C@H](OC(C)(C)C)C(=O)O)N(S(C)(=O)=O)Cc2cc(F)cnc2-3)ccc2c1NCCO2", "note": "[Compound 310]", "values": [
      {"measurement": "EC50", "setting": "[2]", "result": 25, "unit": "nM"}
    ]},
    {"smiles": "Cc1c(-c2ccc3cccnc3c2C)c([C@H](OC(C)(C)C)C(=O)O)c(C)c2c1-c1c(F)ccc(F)c1CN2S(C)(=O)=O", "note": "[Compound 311]", "values": [
      {"measurement": "EC50", "setting": "[2]", "result": 28, "unit": "nM"}
    ]},
    {"smiles": "Cc1c(-c2c(C)c3c(c(C)c2[C@H](OC(C)(C)C)C(=O)O)N(S(C)(=O)=O)Cc2ccc(F)c(F)c2-3)ccc2c1NCCO2", "note": "[Compound 314]", "values": [
      {"measurement": "EC50", "setting": "[2]", "result": 5.3, "unit": "nM"}
    ]},
    {"smiles": "Cc1ccc(-c2c(C)c3c(c(C)c2[C@H](OC(C)(C)C)C(=O)O)N(S(C)(=O)=O)Cc2cc(C)cnc2-3)cc1", "note": "[Compound 315]", "values": [
      {"measurement": "EC50", "setting": "[2]", "result": "< 7.8", "unit": "nM"}
    ]},
    {"smiles": "Cc1cc(Cl)ccc1-c1c(C)c2c(c(C)c1[C@H](OC(C)(C)C)C(=O)O)N(S(C)(=O)=O)Cc1c(F)ccc(F)c1-2", "note": "[Compound 317]", "values": [
      {"measurement": "EC50", "setting": "[3]", "result": 70, "unit": "nM"}
    ]},
    {"smiles": "Cc1cc(Cl)ccc1-c1c(C)c2c(c(C)c1[C@H](OC(C)(C)C)C(=O)O)N(S(C)(=O)=O)Cc1c(F)ccc(F)c1-2", "note": "[Compound 318]", "values": [
      {"measurement": "EC50", "setting": "[3]", "result": 17, "unit": "nM"}
    ]},
    {"smiles": "Cc1ccc(-c2c(C)c3c(c(C)c2[C@H](OC(C)(C)C)C(=O)O)N(S(C)(=O)=O)Cc2c(C(F)(F)F)ccnc2-3)cc1", "note": "[Compound 319]", "values": [
      {"measurement": "EC50", "setting": "[2]", "result": 8.4, "unit": "nM"}
    ]},
    {"smiles": "Cc1c(-c2c(C)c3c(c(C)c2[C@H](OC(C)(C)C)C(=O)O)N(S(C)(=O)=O)Cc2cc(F)cnc2-3)ccc2c1CCCO2", "note": "[Compound 320]", "values": [
      {"measurement": "EC50", "setting": "[2]", "result": 3.1, "unit": "nM"}
    ]},
    {"smiles": "Cc1c(-c2ccc3c(c2C)N(C)CCO3)c([C@H](OC(C)(C)C)C(=O)O)c(C)c2c1-c1c(F)ccc(F)c1CN2S(C)(=O)=O", "note": "[Compound 321]", "values": [
      {"measurement": "EC50", "setting": "[2]", "result": 15, "unit": "nM"}
    ]},
    {"smiles": "COc1cc2c(cn1)-c1c(C)c(-c3ccc4c(c3C)NCCO4)c([C@H](OC(C)(C)C)C(=O)O)c(C)c1N(S(C)(=O)=O)C2", "note": "[Compound 322]", "values": [
      {"measurement": "EC50", "setting": "[2]", "result": 11, "unit": "nM"}
    ]}
  ]
}
